Experimental data as given in publication PMC7114351 (Antiviral Research, 2008).
“And” between values parts separate entries of the source, which are not always exact repeats. Identical values can stand only once. “Also recorded” adds a separate entry of the source. Like-named read-outs stand apart in the source and are kept apart here.

Legend:
[1] = system: recombinant VACV expressing luciferase; test: microbe, parasite or virus in culture; format: cell-based, vaccinia virus; conditions: for IC50: Orthopoxvirus vaccinia, read-out: Luc IC50 ± SD
BSC-40 cells = test: Cytotoxicity, MTT assay; format: cell-based, African green monkey
WT VACV = format: cell-based, vaccinia virus
[2] = system: luciferase expressed by Luc E/L or Luc L; format: cell-based, vaccinia virus
L929 cells = test: Cytotoxicity, MTT assay; format: cell-based, mouse
[3] = system: VACV early/late promoter p7.5 (Luc E/L); format: cell-based, vaccinia virus
[4] = system: VACV late promoter p4b (Luc L); format: cell-based, vaccinia virus
VACV = format: cell-based, vaccinia virus
HeLa G cells = test: Cytotoxicity, MTT assay; format: cell-based, human
VACV genomic DNA = format: cell-based, vaccinia virus
Cytotoxicity, MTT assay [5] = format: cell-based; conditions: human, Jurkat cells
WT VACV (WR) = test: microbe, parasite or virus in culture; format: cell-based; conditions: Orthopoxvirus vaccinia; for IC50: read-out: Titer IC50 ± SD; for IC90: read-out: Titer IC90 ± SD
[6] = system: cell lines of the antiviral assays; test: Cytotoxicity in conditions of the antiviral assays; conditions: up to 1 mM; higher cell density, 2% serum, 24 h incubation
recombinant VACV = test: microbe, parasite or virus in culture; format: cell-based, vaccinia virus; conditions: for IC50 / IC90: Orthopoxvirus vaccinia; for IC50: read-out: Titer IC50 ± SD; for IC90: read-out: Titer IC90 ± SD
VACV proteins = format: cell-based, vaccinia virus
VACV (strain WR) = conditions: HFF cells, ref Quenelle et al., 2007; cited from earlier work
Cytotoxicity, MTT assay [7] = format: cell-based, African green monkey; conditions: African green monkey, BSC-40 cells
Cytotoxicity, MTT assay [8] = format: cell-based, mouse; conditions: mouse, L929 cells
Cytotoxicity, MTT assay [9] = format: cell-based, human; conditions: human, HeLa G cells
VACVs (strain WR) = conditions: two different VACVs (strain WR), ref Becker et al., 2008, cited from earlier work

O=C1O[C@H]([C@@H](O)CO)C(O)=C1O [L-ascorbic acid, L-Ascorbic acid]
luciferase activity, % of the mock-treated controls [1]: 120%

O=C(O)CCCCC1CCSS1 (stereo not drawn) [Lipoic acid, α-lipoic acid]
CC50 (BSC-40 cells; MTT, 2 days of incubation): Growth promotion
inhibition of cell growth, MTT (BSC-40 cells; up to 2 mM): not found to inhibit growth
size of plaques (WT VACV): reduced the size of plaques
protein levels of luciferase, western blot [2]: gradual decrease
CC50 (L929 cells; MTT, 2 days of incubation): Growth promotion
inhibition of cell growth, MTT (L929 cells; up to 2 mM): not found to inhibit growth
effect on activity of Luc E/L [3]: dose-dependent inhibitory effect
effect on activity of luciferase expressed by Luc E/L (early gene expression) [3]: neither EA nor LA further decreased this measurable activity of luciferase
effect on activity of Luc L [4]: dose-dependent inhibitory effect
effect on activity of luciferase expressed by Luc L [4]: neither EA nor LA affected this result
IC50 ([1]; 24 h): 305 ± 12 µM
IC50 ([1]; BSC-40, 24 h): 642 ± 4 µM
IC50 ([1]; HeLa, 24 h): 838 ± 159 µM
IC50 ([1]; L929, 24 h): 747 ± 199 µM
effect of pre-treatment on luciferase activity and virus titers (VACV entry) (VACV): not found to cause any differences
CC50 (HeLa G cells; MTT, 2 days of incubation): Growth promotion
inhibition of cell growth, MTT (HeLa G cells; up to 2 mM): not found to inhibit growth
levels of VACV genomic DNA (VACV genomic DNA): not changed
CC50 at 2 days (Cytotoxicity, MTT assay [5]): > 2000 µM
IC50 (WT VACV (WR); 24 h): 587 ± 296 µM
IC50 (WT VACV (WR); BSC-40, 24 h): 712 ± 444 µM
IC50 (WT VACV (WR); HeLa, 24 h): 803 ± 273 µM
IC50 (WT VACV (WR); Jurkat, 24 h): 492 ± 92 µM
IC50 (WT VACV (WR); L929, 24 h): 702 ± 16 µM
cytotoxicity in conditions of the antiviral assays [6]: neither EA nor LA induced any obvious cytotoxicity
IC50 (recombinant VACV; BSC-40, 24 h): 409 ± 8 µM
IC50 (recombinant VACV; HeLa, 24 h): 220 ± 14 µM
IC50 (recombinant VACV; Jurkat, 24 h): 354 ± 52 µM
IC50 (recombinant VACV; L929, 24 h): 245 ± 18 µM
VACV protein levels, western blot (VACV proteins): did not induce any major changes; also recorded: decreased the protein expression slightly

OCCS [β-mercapthoethanol, β-mercaptoethanol]
luciferase activity, % of the mock-treated controls [1]: 150%

Nc1ccn([C@@H]2O[C@H](CO)[C@@H](O)[C@@H]2O)c(=O)n1 [AraC, cytosine arabinoside]
activity of luciferase expressed by Luc L, % of the mock-treated controls grown in the absence of AraC [4]: ≤ 0.05%

CCCCCCCCCCCCCCCCOCCCOP(=O)(O)CO[C@H](CO)Cn1ccc(N)nc1=O [CMX001]
IC50 (VACV (strain WR)): 0.13 µM

C=C(CC)C(=O)c1ccc(OCC(=O)O)c(Cl)c1Cl [Ethacrynic acid, ethacrynic acid]
CC50 at 2 days (Cytotoxicity, MTT assay [7]): 292 µM
number of plaques (WT VACV): reduced the number of plaques
CC50 at 2 days (Cytotoxicity, MTT assay [8]): 224 µM
IC50 ([1]; 24 h): 18.3 ± 3.7 µM
IC50 ([1]; BSC-40, 24 h): 35.3 ± 7 µM
IC50 ([1]; HeLa, 24 h): 2.6 ± 0.6 µM
IC50 ([1]; L929, 24 h): 26.5 ± 1.9 µM
CC50 at 2 days (Cytotoxicity, MTT assay [9]): 128 µM
levels of VACV genomic DNA (VACV genomic DNA): not changed
CC50 at 2 days (Cytotoxicity, MTT assay [5]): 35 µM
IC50 (WT VACV (WR); 24 h): 9.5 ± 2.6 µM
IC90 (WT VACV (WR); 24 h): 47.8 ± 7.9 µM
IC50 (WT VACV (WR); BSC-40, 24 h): 9.2 ± 1 µM
IC90 (WT VACV (WR); BSC-40, 24 h): 29.4 ± 1 µM
IC90 (WT VACV (WR); HeLa, 24 h): 18.8 ± 0.6 µM
IC50 (WT VACV (WR); Jurkat, 24 h): 13.8 ± 4.7 µM
IC90 (WT VACV (WR); Jurkat, 24 h): 42.9 ± 13.4 µM
IC50 (WT VACV (WR); L929, 24 h): 19.3 ± 3.9 µM
IC90 (WT VACV (WR); L929, 24 h): 61.3 ± 16.3 µM
inhibition of VACV growth (recombinant VACV): 1 logs and 2 logs
IC50 (recombinant VACV; 24 h): 12.2 ± 0.3 µM
IC90 (recombinant VACV; 24 h): 40.9 ± 1.4 µM
IC50 (recombinant VACV; BSC-40, 24 h): 11.9 ± 0.5 µM
IC90 (recombinant VACV; BSC-40, 24 h): 30.9 ± 0.8 µM
IC50 (recombinant VACV; HeLa, 24 h): 1.6 ± 0.1 µM
IC90 (recombinant VACV; HeLa, 24 h): 5.4 ± 0.3 µM
IC50 (recombinant VACV; Jurkat, 24 h): 9.5 ± 2.4 µM
IC90 (recombinant VACV; Jurkat, 24 h): 30.9 ± 10 µM
IC50 (recombinant VACV; L929, 24 h): 19.8 ± 2.4 µM
IC90 (recombinant VACV; L929, 24 h): 80.2 ± 30.9 µM
VACV protein levels, western blot (VACV proteins): did not seem to decrease protein levels

O[C@@H](CS)[C@@H](O)CS (racemic) [dithiothreitol]
luciferase activity, % of the mock-treated controls [1]: 140%

O=C(NN1C(=O)[C@@H]2[C@@H]3C=C[C@@H]([C@H]4C[C@@H]34)[C@@H]2C1=O)c1ccc(C(F)(F)F)cc1 [ST-246]
IC50 (VACV (strain WR)): 0.1 µM

Nc1ccn(C[C@@H](CO)OCP(=O)(O)O)c(=O)n1 [cidofovir]
IC50 (VACVs (strain WR); BSC-40 cells): < 50 µM
IC50 (VACVs (strain WR); Vero cells): 54 µM and 62 µM
IC50 (VACV (strain WR)): 33 µM
